Laboratory results reported in patent publication US20040058948A1, “Mappicine analogs, methods of inhibiting retroviral reverse transcriptase and methods of treating retroviruses” (priority 2002, published 2004).
“And” between values parts separate entries of the source, which are not always exact repeats. Equal values may be shown once. Read-outs that look alike come from different tables or passages of the source.

Legend:
[1] = target: T1, RNA-dependent DNA polymerase activity of HIV reverse transcriptase (Human immunodeficiency virus type 1 group M subtype B, UniProt P04585); assay: RNA-dependent DNA polymerase activity assay of HIV reverse transcriptase; assay type: biochemical, HIV-1; settings: 10 μM inhibitor concentration, activity with analog / without analog x 100; for remaining activity at 10 µM: read-out: Residual activity (%) Polymerase
T1 construct: made in house
Procedure, shortened: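 HIV reverse transcriptase RNA-dependent DNA polymerase activity measured with and without mappicine analogs at 10 μM final. Values are % residual activity: activity with compound divided by activity without, ×100.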

[2] = target: T2, RNase H activity of HIV reverse transcriptase (Human immunodeficiency virus type 1 group M subtype B, UniProt P04585); assay: Fluorescence (FRET)-based RNase H activity assay of HIV reverse transcriptase; assay type: biochemical, HIV-1; design: final concentration of 2.5 nM of the p51/p66 RT heterodimer in the assay; made in house; settings: for Residual activity (%) RNase H / remaining activity at 10 µM: 10 μM inhibitor concentration, activity with analog / without analog x 100; for remaining activity at 10 µM: read-out: Residual activity (%) RNase H; for IC50: read-out: IC50 (μM) against HIV RNase H in vitro
Procedure, shortened: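 p51/p66 HIV-1 RT (usually 2.5 nM) cleaving a 3′-fluorescein RNA/5′-DABCYL DNA hybrid (2.5 μM stock) in 50 mM Tris pH 8.0, 60 mM KCl, 2.5 mM MgCl2, 37 °C; fluorescence rise (ex 490/em 528 nm) read over 3–60 min. Mappicine analogs at 10 μM; % residual activity or % inhibition versus compound-free enzyme.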

HIV-1 replication [3] = assay: Cell culture viral growth assay (HIV-1 replication); assay type: cell-based
HIV-1 replication [4] = settings: published compounds, in words; cited from earlier work
cells [5] = settings: published compound, in words; cited from earlier work
[6] = target: T2, RNase H activity of HIV reverse transcriptase; settings: read-out: IC50 RNase H inhibition; literature value (Borkow et al. 1997); cited from earlier work
cells [7] = settings: published compounds, in words; cited from earlier work
[8] = Human immunodeficiency virus 1, read-out: EC50 (μM) against HIV-1 replication

SMILES	Residual activity (%) Polymerase [1] [%]	Residual activity (%) RNase H [2] [%]	also measured
CCCCCCc1c2c(nc3ccccc13)-c1cc(C(=O)CC)c(C)c(=O)n1C2 [8Aακ]	53	77	–
CCCCCCc1c2c(nc3ccccc13)-c1cc(C(O)C(C)(C)C)c(C)c(=O)n1C2 (stereo not drawn) [8Aβ]	103	91	–
CCCCCCc1c2c(nc3ccccc13)-c1cc(C(=O)C(C)(C)C)c(C)c(=O)n1C2 [8Aβκ]	76	96	–
CCCCCCc1c2c(nc3ccccc13)-c1cc(C(O)CCC3CCCCC3)c(C)c(=O)n1C2 (stereo not drawn) [8Aδ]	72	89	–
CCCCCCc1c2c(nc3ccccc13)-c1cc(C(=O)CCC3CCCCC3)c(C)c(=O)n1C2 [8Aδκ]	63	97	–
CCCCCCc1c2c(nc3ccccc13)-c1cc(C(=O)Cc3ccccc3)c(C)c(=O)n1C2 [8Aεκ]	59	92	–
CCCCCCc1c2c(nc3ccc(F)cc13)-c1cc(C(O)CC)c(C)c(=O)n1C2 (stereo not drawn) [8Bα]	57	80	–
CCCCCCc1c2c(nc3ccc(F)cc13)-c1cc(C(=O)CC)c(C)c(=O)n1C2 [8Bακ]	64	103	–
CCCCCCc1c2c(nc3ccc(F)cc13)-c1cc(C(=O)C(C)(C)C)c(C)c(=O)n1C2 [8Bβκ]	44	81	–
CCCCCCc1c2c(nc3ccc(F)cc13)-c1cc(C(O)CCC3CCCCC3)c(C)c(=O)n1C2 (stereo not drawn) [8Bδ]	90	112	–
CCCCCCc1c2c(nc3ccc(F)cc13)-c1cc(C(=O)CCC3CCCCC3)c(C)c(=O)n1C2 [8Bδκ]	80	95	–
CCCCCCc1c2c(nc3ccc(C)cc13)-c1cc(C(=O)CC)c(C)c(=O)n1C2 [8Cακ]	31	92	–
CCCCCCc1c2c(nc3ccc(C)cc13)-c1cc(C(=O)C(C)(C)C)c(C)c(=O)n1C2 [8Cβκ]	66	95	–
CCCCCCc1c2c(nc3ccc(C)cc13)-c1cc(C(O)CCC3CCCCC3)c(C)c(=O)n1C2 (stereo not drawn) [8Cδ]	73	72	–
CCCCCCc1c2c(nc3ccc(C)cc13)-c1cc(C(=O)CCC3CCCCC3)c(C)c(=O)n1C2 [8Cδκ]	79	95	–
CCCCCCc1c2c(nc3ccc(C)cc13)-c1cc(C(=O)Cc3ccccc3)c(C)c(=O)n1C2 [8Cεκ]	66	86	–
CCCCCCc1c2c(nc3ccc(OC)cc13)-c1cc(C(=O)CC)c(C)c(=O)n1C2 [8Dακ]	–	–	Residual activity (%) Polymerase ([1]; 10 µM): 90% and 51%; Residual activity (%) RNase H ([2]; 10 µM): 88% and 84%
CCCCCCc1c2c(nc3ccc(OC)cc13)-c1cc(C(=O)CCC3CCCCC3)c(C)c(=O)n1C2 [8Dδκ]	65	90	–
CCCCCCc1c2c(nc3ccc(OC)cc13)-c1cc(C(O)Cc3ccccc3)c(C)c(=O)n1C2 (stereo not drawn) [8Dε]	73	82	–
CCC(O)c1cc2n(c(=O)c1C)Cc1c-2nc2ccc(NC(=O)OC(C)(C)C)cc2c1[Si](C)(C)C (stereo not drawn) [AG 2M, 2-tert-Butyloxycarbonylamino-7-(1-hydroxypropyl)-8-methyl-12-trimethylsilanyl-11H-indolizino[1,2-b]quinolin-9-one]	–	–	remaining activity at 10 µM [1]: 80%; EC50 (HIV-1 replication [3]; [8]): ~5 µM; remaining activity at 10 µM [2]: 47%; IC50 [2]: < 10 µM and 8 µM
CCC(O)c1cc2n(c(=O)c1C)Cc1c-2nc2ccc(N)cc2c1[Si](C)(C)C (stereo not drawn) [AG 3M, 2-Amino-7-(1-hydroxypropyl)-8-methyl-12-trimethylsilanyl-11H-indolizino[1,2-b]quinolin-9-one]	–	–	remaining activity at 10 µM [1]: 123%; remaining activity at 10 µM [2]: 63%
CCc1c2c(nc3ccc(NC(=O)OC(C)(C)C)cc13)-c1cc(C(O)CC)c(C)c(=O)n1C2 (stereo not drawn) [AG 5M, 2-tert-Butyloxycarbonylamino-12-ethyl-7-(1-hydroxypropyl)-8-methyl-11H-indolizino[1,2-b]quinolin-9-one]	–	–	remaining activity at 10 µM [1]: 87%; remaining activity at 10 µM [2]: 68%
CCc1c2c(nc3ccc(N)cc13)-c1cc(C(O)CC)c(C)c(=O)n1C2 (stereo not drawn) [AG 6M, 2-Amino-12-ethyl-7-(1-hydroxypropyl)-8-methyl-11H-indolizino[1,2-b]quinolin-9-one]	–	–	remaining activity at 10 µM [1]: 76%; EC50 (HIV-1 replication [3]; [8]): ~5 µM; remaining activity at 10 µM [2]: 57%; IC50 [2]: < 10 µM and 10 µM
CCc1c2c(nc3ccc(OC(C)=O)cc13)-c1cc(C(O)CC)c(C)c(=O)n1C2 (stereo not drawn) [AG 7M, 2-Acetoxy-12-ethyl-7-(1-hydroxypropyl)-8-methyl-11H-indolizino[1,2-b]quinolin-9-one]	–	–	remaining activity at 10 µM [1]: 99%; remaining activity at 10 µM [2]: 63%
CCc1c2c(nc3ccc(O)cc13)-c1cc(C(O)CC)c(C)c(=O)n1C2 (stereo not drawn) [AG 8M, 12-Ethyl-2-hydroxy-7-(1-hydroxypropyl)-8-methyl-11H-indolizino[1,2-b]quinolin-9-one]	–	–	remaining activity at 10 µM [1]: 69%; remaining activity at 10 µM [2]: 87%
CC(C)(C)c1ccc(C(=O)NN=Cc2c(O)ccc3ccccc23)cc1 [BBNH, N-4-(t-butylbenzoyl)-2-hydroxy-1-napthaldehyde hydrazone]	–	–	EC50 (HIV-1 replication [3]; Human immunodeficiency virus 1, cell culture viral growth assay, read-out: EC50 (μM) against HIV-1 replication): 1.5 µM; antiviral activity against HIV-1 replication in cultured cells (HIV-1 replication [4]): demonstrated antiviral activity against HIV-1 replication in cultured cells; toxicity to cells (cells [5]): highly toxic to cells at concentrations only slightly above those that inhibit virus replication; IC50 [6]: ~2 µM; IC50 [2]: 1.8 µM
O=C(O)C(=O)CC(=O)c1ccc(NC(=O)c2ccccc2)s1 [BTOBA, 4-[5-(benzoylamino)thien-2-yl]-2,4-dioxobutanoic acid]	–	–	antiviral activity against HIV-1 replication in cultured cells (HIV-1 replication [4]): cannot inhibit HIV-1 replication in cultured cells; ability to penetrate cells (cells [7]): Neither CPHM nor BTOBA are able to penetrate cells
O=C(O)C(=NNc1ccc(Cl)cc1)C(=O)O [CPHM, 2-[(4-chlorophenyl)-hydrazono]-malonic acid]	–	–	antiviral activity against HIV-1 replication in cultured cells (HIV-1 replication [4]): cannot inhibit HIV-1 replication in cultured cells; ability to penetrate cells (cells [7]): Neither CPHM nor BTOBA are able to penetrate cells
